Results from patent US10544143B2, “4-azaindole compounds” (BRISTOL-MYERS SQUIBB COMPANY, priority 2017, dated 2020).

Key:
human TLR9 = human TLR9 (Homo sapiens (Human), UniProt Q9NR96); assay: TLR9 inhibition reporter assay (HEK-Blue SEAP); settings: read-out: TLR9 IC50; HEK-Blue cells overexpressing human TLR9, SEAP reporter, ODN2006 5 nM;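 further: SEAP driven by an IFN-β minimal promoter with NF-κB and AP-1 sites, read after 22 h, compounds dosed 0.05 nM–50 µM, inhibition scaled between agonist plus DMSO and reference-inhibitor wells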
human TLR7 = human TLR7 (Homo sapiens (Human), UniProt Q9NYK1); assay: TLR7 inhibition reporter assay (HEK-Blue SEAP); assay type: cell-based; settings: HEK-Blue cells overexpressing human TLR7, SEAP reporter, gardiquimod 7.5 μM
human TLR8 = human TLR8 (Homo sapiens (Human), UniProt Q9NR97); assay: TLR8 inhibition reporter assay (HEK-Blue SEAP); settings: read-out: TLR8 IC50; HEK-Blue cells overexpressing human TLR8, SEAP reporter, R848 15.9 μM;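 further: SEAP driven by IFN-β minimal promoter carrying NF-κB and AP-1 sites, compounds dosed 0.05 nM to 50 µM for 22 h, inhibition scaled between agonist-plus-DMSO and reference-inhibitor wells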
Chain of human TLR8 (Q9NR97 27-1041): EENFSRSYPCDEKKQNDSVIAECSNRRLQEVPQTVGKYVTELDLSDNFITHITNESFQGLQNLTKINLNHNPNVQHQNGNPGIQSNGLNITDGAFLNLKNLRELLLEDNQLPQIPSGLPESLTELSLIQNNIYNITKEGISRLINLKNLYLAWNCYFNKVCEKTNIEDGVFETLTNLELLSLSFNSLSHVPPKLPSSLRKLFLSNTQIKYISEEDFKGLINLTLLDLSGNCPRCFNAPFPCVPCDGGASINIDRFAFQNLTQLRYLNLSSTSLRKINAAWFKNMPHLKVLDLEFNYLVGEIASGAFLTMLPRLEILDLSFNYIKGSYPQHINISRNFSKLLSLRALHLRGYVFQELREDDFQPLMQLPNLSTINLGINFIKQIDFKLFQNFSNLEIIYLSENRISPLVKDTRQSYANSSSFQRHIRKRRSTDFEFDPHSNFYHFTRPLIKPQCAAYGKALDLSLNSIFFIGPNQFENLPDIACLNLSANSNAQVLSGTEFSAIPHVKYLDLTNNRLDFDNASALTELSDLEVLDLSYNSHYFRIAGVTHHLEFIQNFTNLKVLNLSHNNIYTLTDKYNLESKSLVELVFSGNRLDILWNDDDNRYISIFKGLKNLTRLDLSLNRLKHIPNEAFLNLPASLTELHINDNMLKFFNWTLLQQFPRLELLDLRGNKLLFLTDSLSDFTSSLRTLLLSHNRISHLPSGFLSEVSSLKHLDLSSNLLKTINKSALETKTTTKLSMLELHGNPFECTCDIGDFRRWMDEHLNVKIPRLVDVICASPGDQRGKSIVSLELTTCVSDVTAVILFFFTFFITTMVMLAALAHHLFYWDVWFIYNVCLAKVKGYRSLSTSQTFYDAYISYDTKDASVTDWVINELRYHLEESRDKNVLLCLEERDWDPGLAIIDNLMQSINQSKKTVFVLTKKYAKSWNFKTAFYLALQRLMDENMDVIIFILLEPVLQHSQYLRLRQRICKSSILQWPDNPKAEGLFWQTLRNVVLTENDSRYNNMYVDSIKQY

Chain of human TLR9 (Q9NR96 26-1032): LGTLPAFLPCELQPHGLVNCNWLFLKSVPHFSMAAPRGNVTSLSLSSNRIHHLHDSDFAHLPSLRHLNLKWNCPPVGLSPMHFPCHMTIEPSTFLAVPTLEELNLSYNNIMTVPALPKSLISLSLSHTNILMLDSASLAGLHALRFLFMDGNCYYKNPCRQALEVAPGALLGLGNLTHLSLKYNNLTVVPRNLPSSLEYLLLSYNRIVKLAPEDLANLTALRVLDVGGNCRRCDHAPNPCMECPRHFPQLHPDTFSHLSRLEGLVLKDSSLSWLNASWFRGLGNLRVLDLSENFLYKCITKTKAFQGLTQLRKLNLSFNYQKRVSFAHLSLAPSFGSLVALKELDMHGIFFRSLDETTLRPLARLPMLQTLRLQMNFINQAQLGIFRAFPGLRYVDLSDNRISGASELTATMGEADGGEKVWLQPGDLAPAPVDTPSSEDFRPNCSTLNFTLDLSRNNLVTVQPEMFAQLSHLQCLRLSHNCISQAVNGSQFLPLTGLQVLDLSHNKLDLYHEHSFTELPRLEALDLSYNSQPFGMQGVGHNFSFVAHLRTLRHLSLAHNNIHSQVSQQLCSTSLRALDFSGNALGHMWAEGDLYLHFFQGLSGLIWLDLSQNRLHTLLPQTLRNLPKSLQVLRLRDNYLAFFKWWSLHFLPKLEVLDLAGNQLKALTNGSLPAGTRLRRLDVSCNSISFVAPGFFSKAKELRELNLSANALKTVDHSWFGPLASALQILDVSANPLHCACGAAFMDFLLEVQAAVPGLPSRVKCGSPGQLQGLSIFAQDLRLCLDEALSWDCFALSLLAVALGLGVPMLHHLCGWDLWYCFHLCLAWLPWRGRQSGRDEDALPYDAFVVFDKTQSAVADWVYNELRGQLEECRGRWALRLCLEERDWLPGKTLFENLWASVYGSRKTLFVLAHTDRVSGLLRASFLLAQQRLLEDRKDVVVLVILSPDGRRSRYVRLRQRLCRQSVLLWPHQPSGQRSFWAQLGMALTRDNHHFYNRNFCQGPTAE
Chain of human TLR7 (Q9NYK1 27-1049): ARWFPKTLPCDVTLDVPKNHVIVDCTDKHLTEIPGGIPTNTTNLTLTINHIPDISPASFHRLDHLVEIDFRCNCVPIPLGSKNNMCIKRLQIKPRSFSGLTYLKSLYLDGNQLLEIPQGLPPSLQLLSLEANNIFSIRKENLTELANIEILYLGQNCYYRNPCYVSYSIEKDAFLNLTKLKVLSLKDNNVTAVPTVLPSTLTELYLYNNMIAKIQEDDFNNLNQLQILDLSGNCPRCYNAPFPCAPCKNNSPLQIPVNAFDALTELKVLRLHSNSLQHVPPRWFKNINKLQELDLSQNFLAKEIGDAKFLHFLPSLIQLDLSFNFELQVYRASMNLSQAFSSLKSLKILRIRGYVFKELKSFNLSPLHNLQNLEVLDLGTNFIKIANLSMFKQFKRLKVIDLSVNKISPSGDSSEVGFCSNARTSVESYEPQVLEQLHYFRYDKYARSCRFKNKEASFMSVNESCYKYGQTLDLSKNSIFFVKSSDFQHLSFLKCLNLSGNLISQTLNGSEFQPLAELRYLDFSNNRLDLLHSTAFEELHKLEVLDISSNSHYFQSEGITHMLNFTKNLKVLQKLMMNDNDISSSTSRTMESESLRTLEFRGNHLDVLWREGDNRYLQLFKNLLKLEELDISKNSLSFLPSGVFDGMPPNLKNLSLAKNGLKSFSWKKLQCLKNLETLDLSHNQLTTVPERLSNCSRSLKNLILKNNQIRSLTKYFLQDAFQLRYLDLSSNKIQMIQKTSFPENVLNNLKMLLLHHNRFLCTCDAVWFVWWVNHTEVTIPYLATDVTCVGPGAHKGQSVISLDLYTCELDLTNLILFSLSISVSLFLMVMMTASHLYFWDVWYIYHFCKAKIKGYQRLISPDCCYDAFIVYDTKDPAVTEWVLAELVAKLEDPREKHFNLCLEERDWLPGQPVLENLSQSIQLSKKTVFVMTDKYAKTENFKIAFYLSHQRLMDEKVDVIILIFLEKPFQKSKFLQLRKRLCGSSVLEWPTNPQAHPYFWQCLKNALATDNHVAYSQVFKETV

IC50 (human TLR9) [nM]	IC50 (human TLR7) [nM]	IC50 (human TLR8) [nM]	SMILES
1020	8.5	18	COc1cc(-c2[nH]c3ccc(CCC4CN(CC5(C)COC5)C4)nc3c2C(C)C)cn2ncnc12 [Example 706]
1410	1.5	5.3	COc1cc(-c2[nH]c3ccc(C4CCC(NC5CCOCC5)C4)nc3c2C(C)C)cn2ncnc12 (stereo not drawn) [Example 707]
> 50000	2330	> 3120	COc1cc(-c2[nH]c3ccc(C4CCC(NCCS(C)(=O)=O)C4)nc3c2C(C)C)cn2ncnc12 (stereo not drawn) [Example 709]
4660	2	3.2	COc1cc(-c2[nH]c3ccc(C4CCC(NC5CCOCC5)C4)nc3c2C(C)C)cn2ncnc12 (stereo not drawn) [Example 710]
1700	2	2.9	COc1cc(-c2[nH]c3ccc(C4CCC(NCC5(C)COC5)C4)nc3c2C(C)C)cn2ncnc12 (stereo not drawn) [Example 711]
3140	1.9	11	COc1cc(-c2[nH]c3ccc(C4CCC(NC(=O)CN(C)C)C4)nc3c2C(C)C)cn2ncnc12 (stereo not drawn) [Example 712]
203	1.8	9.3	COc1cc(-c2[nH]c3ccc(C4CCC(NC(=O)C5CCN(C)CC5)C4)nc3c2C(C)C)cn2ncnc12 (stereo not drawn) [Example 714]
8710	1.7	11	COc1cc(-c2[nH]c3ccc(C4CCC(NC5COC5)C4)nc3c2C(C)C)cn2ncnc12 (stereo not drawn) [Example 715]
2530	0.74	6.7	COc1cc(-c2[nH]c3ccc(C4CCC(NCC#N)C4)nc3c2C(C)C)cn2ncnc12 (stereo not drawn) [Example 716]
6210	9.6	3.6	COc1cc(-c2[nH]c3ccc(C4CCC(NCC5(C)COC5)C4)nc3c2C(C)C)cn2ncnc12 (stereo not drawn) [Example 718]
2600	2.8	7	CNC(=O)CNC1CCC(c2ccc3[nH]c(-c4cc(OC)c5ncnn5c4)c(C(C)C)c3n2)C1 (stereo not drawn) [Example 719]
982	0.41	0.53	COc1cc(-c2[nH]c3ccc(C4CCC(NC5CCOCC5)C4)nc3c2C(C)C)cn2ncnc12 (stereo not drawn) [Example 721]
4390	0.99	2.4	COc1cc(-c2[nH]c3ccc(C4CCC(NC(C)C)C4)nc3c2C(C)C)cn2ncnc12 (stereo not drawn) [Example 723]
2190	0.63	2	COc1cc(-c2[nH]c3ccc(C4CCC(NC(C)C5CC5)C4)nc3c2C(C)C)cn2ncnc12 (stereo not drawn) [Example 724]
2060	0.62	1.9	CNC(=O)CNC1CCC(c2ccc3[nH]c(-c4cc(OC)c5ncnn5c4)c(C(C)C)c3n2)C1 (stereo not drawn) [Example 725]
3350	3.6	3.2	COc1cc(-c2[nH]c3ccc(C4CCC(NC5CCOCC5)C4)nc3c2C(C)C)cn2ncnc12 (stereo not drawn) [Example 727]
3540	0.74	0.67	COc1cc(-c2[nH]c3ccc(C4CCC(NCC5(C)COC5)C4)nc3c2C(C)C)cn2ncnc12 (stereo not drawn) [Example 728]
1940	1.1	1.3	COc1cc(-c2[nH]c3ccc(C4CCC(NC5CCOC(C)(C)C5)C4)nc3c2C(C)C)cn2ncnc12 (stereo not drawn) [Example 729]
10500	3.3	23	COc1cc(-c2[nH]c3ccc(C4CCC(N(CC#N)CC#N)C4)nc3c2C(C)C)cn2ncnc12 (stereo not drawn) [Example 730]

Second part, the compound before the results:

SMILES	IC50 (human TLR9) [nM]	IC50 (human TLR7) [nM]	IC50 (human TLR8) [nM]
COc1cc(-c2[nH]c3ccc(CCN4CCCCC4)nc3c2C(C)C)cn2ncnc12 [Example 682]	1050	16	24
CC(C)c1c(-c2cn(C)c3ncccc23)[nH]c2ccc(CCC3CN(CC(=O)N(C)C)C3)nc12 [Example 683]	322	12	13
CC(C)c1c(-c2cn(C)c3ncccc23)[nH]c2ccc(CCC3CN(CCS(C)(=O)=O)C3)nc12 [Example 684]	365	14	13
Cc1c(-c2[nH]c3ccc(CCC4CN(C(=O)CN(C)C)C4)nc3c2C(C)C)cn2ncnc2c1C [Example 685]	1580	32	39
Cc1c(-c2[nH]c3ccc(CCC4CN(C5COC5)C4)nc3c2C(C)C)cn2ncnc2c1C [Example 686]	> 50000	> 3120	> 3120
Cc1c(-c2[nH]c3ccc(CCC4CN(C5COC5)C4)nc3c2C(C)C)cn2ncnc2c1C [Example 687]	5770	39	16
COc1cc(-c2[nH]c3ccc(CCC4CN(CC(=O)N(C)C)C4)nc3c2C(C)C)cn2ncnc12 [Example 689]	433	11	42
CC(C)c1c(-c2cn(C)c3ncccc23)[nH]c2ccc(CCC3CNC3)nc12 [Example 690]	288	15	31
CC(C)c1c(-c2cn(C)c3ncccc23)[nH]c2ccc(CCC3CN(CC4(C)COC4)C3)nc12 [Example 691]	315	11	9.2
Cc1c(-c2[nH]c3ccc(CCC4CNC4)nc3c2C(C)C)cn2ncnc2c1C [Example 692]	1530	43	58
COc1cc(-c2[nH]c3ccc(CCC4CN(CC(C)(C)O)C4)nc3c2C(C)C)cn2ncnc12 [Example 693]	437	6.5	15
CC(C)c1c(-c2cn(C)c3ncccc23)[nH]c2ccc(CCC3CN(C4COC4)C3)nc12 [Example 694]	14600	2310	2850
Cc1c(-c2[nH]c3ccc(CCC4CN(CCS(C)(=O)=O)C4)nc3c2C(C)C)cn2ncnc2c1C [Example 695]	3950	42	20
Cc1c(-c2[nH]c3ccc(CCC4CN(CC(=O)N(C)C)C4)nc3c2C(C)C)cn2ncnc2c1C [Example 696]	1310	75	36
COc1cc(-c2[nH]c3ccc(CCC4CNC4)nc3c2C(C)C)cn2ncnc12 [Example 697]	919	20	111
COc1cc(-c2[nH]c3ccc(CCC4CN(CCS(C)(=O)=O)C4)nc3c2C(C)C)cn2ncnc12 [Example 698]	1000	12	28
COc1cc(-c2[nH]c3ccc(CCC4CN(C(=O)CN(C)C)C4)nc3c2C(C)C)cn2ncnc12 [Example 699]	430	12	46

SMILES	IC50 (human TLR9) [nM]	IC50 (human TLR7) [nM]	IC50 (human TLR8) [nM]
COc1cc(-c2[nH]c3ccc(CCC4CN(C5COC5)C4)nc3c2C(C)C)cn2ncnc12 [Example 700]	2330	26	43
Cc1c(-c2[nH]c3ccc(CCC4CN(CC(C)(C)O)C4)nc3c2C(C)C)cn2ncnc2c1C [Example 701]	1750	49	15
Cc1c(-c2[nH]c3ccc(CCC4CN(CC5(C)COC5)C4)nc3c2C(C)C)cn2ncnc2c1C [Example 702]	2230	41	14
CC(C)c1c(-c2cn(C)c3ncccc23)[nH]c2ccc(CCC3CN(C(=O)CN(C)C)C3)nc12 [Example 703]	326	8.9	16
CC(C)c1c(-c2cn(C)c3ncccc23)[nH]c2ccc(CCC3CN(Cc4c[nH]nn4)C3)nc12 [Example 704]	166	11	13
Cc1c(-c2[nH]c3ccc(CCC4CN(Cc5c[nH]nn5)C4)nc3c2C(C)C)cn2ncnc2c1C [Example 705]	655	18	15
COc1cc(-c2[nH]c3ccc(C4CCC(N(CC(N)=O)CC(N)=O)C4)nc3c2C(C)C)cn2ncnc12 (stereo not drawn) [Example 708]	> 50000	12	280
COc1cc(-c2[nH]c3ccc(C4CCC(N(CC#N)CC#N)C4)nc3c2C(C)C)cn2ncnc12 (stereo not drawn) [Example 713]	4880	6.2	28
COc1cc(-c2[nH]c3ccc(C4CCC(N(CCS(C)(=O)=O)CCS(C)(=O)=O)C4)nc3c2C(C)C)cn2ncnc12 (stereo not drawn) [Example 717]	2520	1060	1100
COc1cc(-c2[nH]c3ccc(C4CCC(N(CC(N)=O)CC(N)=O)C4)nc3c2C(C)C)cn2ncnc12 (stereo not drawn) [Example 720]	20300	13	94
COc1cc(-c2[nH]c3ccc(C4CCC(N(CC(=O)N(C)C)CC(=O)N(C)C)C4)nc3c2C(C)C)cn2ncnc12 (stereo not drawn) [Example 722]	18500	6.5	46
COc1cc(-c2[nH]c3ccc(C4CCC(N(CCS(C)(=O)=O)CCS(C)(=O)=O)C4)nc3c2C(C)C)cn2ncnc12 (stereo not drawn) [Example 726]	39400	1360	2090
COc1cc(-c2[nH]c3cc(C)c(C(=O)NC4CCN(C(C)C)CC4)nc3c2C(C)C)cn2ncnc12 [Example 731]	1640	4.6	15
COc1cc(-c2[nH]c3cc(C)c(C(=O)N(C)CCN(C)C)nc3c2C(C)C)cn2ncnc12 [Example 732]	4830	10	70
COc1cc(-c2[nH]c3cc(C)c(C(=O)N4CCN(C(C)=O)CC4)nc3c2C(C)C)cn2ncnc12 [Example 733]	> 50000	53	1010
COc1cc(-c2[nH]c3cc(C)c(C(=O)N(C)CCC(F)(F)F)nc3c2C(C)C)cn2ncnc12 [Example 734]	> 50000	26	252
